Legend:
[1] = Liver microsomes stability assay (mouse); format: in vitro ADME
Description: The liver microsome stability assay was carried as previously described (Refs. 40-41). NADPH regenerating agent solutions A and B and mouse liver microsomes (CD-1) were obtained from BD Gentest (Woburn, MA). Pooled human liver microsomes were purchased from XenoTech (Lenexa, KS). Ninety-six deep well plates were obtained from Midsci (St. Louis, MO). Ninety-six analytical plates were obtained from Corning Incorporated (Acton, MA). Sample preparation for microsomal stability was modified from Di's publications. A set of incubation times of 0, 15, 30, 60, 120, and 240 min were used. DMSO stock solutions of test compounds and verapamil (system control) were prepared at 10 mM concentration. Concentrated human or mouse liver microsomes (20 mg/mL protein concentration) and 0.5 M EDTA were diluted into 0.1 M potassium phosphate buffer (pH 7.4) and mixed well, followed by compounds solutions being spiked. This solution was mixed and 90 μL was transferred to 6 time points plates (each in triplicate wells). For the time 0 h plate, 3 fold (v:v) cold acetonitrile with internal standard (40 ng/ml warfarin) was added to each well, followed by addition of NADPH regenerating agent (mixing NADPH solutions A and B in PBS, pH7.4) and no incubation. […] The metabolic stability was evaluated via the half-life from least-squares fit of the multiple time points based on first-order kinetics.

MDCKII-MDR1 cells = test: MDCKII-MDR1 permeability assay; format: in vitro ADME; conditions: permeability in MDCK-MDR1 cells
Description: High throughput […]1 permeability was performed in the Transwell® 0.4 μm polycarbonate membrane 96-well system with modified methods (Refs. 38-39). […]1 cells were maintained at 37° C. in a humidified incubator with an atmosphere of 5% CO2. The cells were cultured in 75 cm^2 flasks with Dulbecco's Modified Eagle's Medium (DMEM) containing 10% fetal bovine serum (FBS), 1% non-essential amino acids (NEAA), 100 units/ml of penicillin, and 100 μg/ml of streptomycin. The […]1 cells were seeded onto inserts at a density of 2×10^4 and 1×10^4 cells/insert separately. The medium in the wells was exchanged each other day, and the trans epithelial electrical resistance (TEER) value was measured using an epithelial volt-ohm meter (Millipore, Billerica, Massachusetts). […] For transport experiments, each cultured monolayer on the 96-well plate was washed twice with a transport buffer (HBSS/25 mM HEPES, pH 7.4). The permeability assay was initiated by the addition of each compound solution (10 μmol/L) into inserts (apical side, A) or receivers (basolateral side, B). The MDCKII-MDR1 cell monolayers were incubated for 1 hour at 37° C. Fractions were collected from receivers (if apical to basal permeability) or inserts (if basal to apical permeability), and concentrations were assessed by UPLC/MS (Waters; Milford, MA). All compounds were tested in triplicates. The A→B (or B→A) apparent permeability coefficients (Papp) of each compound were calculated using the equation, Papp=dQ/dt×1/AC0, where dQ/dt equals the flux of a drug across the monolayer, A equals the total insert well surface area, and C0 is the initial concentration of substrate in the donor compartment. The efflux ratio was determined by dividing the Papp in the B-A direction by the Papp in the A-B direction.

[2] = tested on: CRBN knockout MV4-11 cells; test: Cell viability in CRBN knockout MV4-11 cells; format: cell-based, human; conditions: CRBN knockout vs wild-type MV4-11 cells
Description: MV-4-11 cell line was purchased from the American Type Culture Collection (ATCC, Manassas, VA). The cells were cultured according to recommendations in IMDM cell culture media (ATCC). Exponentially growing MV-4-11 cells were plated at 1,000 cells per well in Corning 8804BC white 384-well assay plates and incubated overnight at 37° C. in a humidified 5% CO2 incubator. Compounds were transferred to the assay plate from a dose-response plate using a Pintool on a Biomek FXP Laboratory Automation Workstation (Beckman Coulter). Cytotoxicity was determined following 72 hours of incubation using Promega Cell Titer Glo reagent according to the manufacturer's recommendation. Luminescence was measured on an Envision plate reader (Perkin-Elmer).
CRBN-deficient MV4:11 cells were generated using CRISPR-Cas9 technology. […] Five days post nucleofection, cells were single-cell sorted by FACs to enrich for GFP+(transfected) cells, clonally selected, and verified for the desired targeted modification via targeted deep sequencing using gene specific primers with partial Illumina adapter overhangs (hCRBN.F—5′-[sequence]-3′ (SEQID: 6) and hCRBN.R—5′-[sequence]-3′, (SEQID: 7); overhangs not shown) and analyzed using CRIS.py (Ref. 36).

GSPT1 = GSPT1 (Homo sapiens (Human), UniProt P15170+Q96SW2); test: GSPT1 degradation by immunoblot in MV4-11 cells; format: cell-based; conditions: MV4-11 cells, 4 hours, at 100 nM
Chain of GSPT1 (P15170 whole entry): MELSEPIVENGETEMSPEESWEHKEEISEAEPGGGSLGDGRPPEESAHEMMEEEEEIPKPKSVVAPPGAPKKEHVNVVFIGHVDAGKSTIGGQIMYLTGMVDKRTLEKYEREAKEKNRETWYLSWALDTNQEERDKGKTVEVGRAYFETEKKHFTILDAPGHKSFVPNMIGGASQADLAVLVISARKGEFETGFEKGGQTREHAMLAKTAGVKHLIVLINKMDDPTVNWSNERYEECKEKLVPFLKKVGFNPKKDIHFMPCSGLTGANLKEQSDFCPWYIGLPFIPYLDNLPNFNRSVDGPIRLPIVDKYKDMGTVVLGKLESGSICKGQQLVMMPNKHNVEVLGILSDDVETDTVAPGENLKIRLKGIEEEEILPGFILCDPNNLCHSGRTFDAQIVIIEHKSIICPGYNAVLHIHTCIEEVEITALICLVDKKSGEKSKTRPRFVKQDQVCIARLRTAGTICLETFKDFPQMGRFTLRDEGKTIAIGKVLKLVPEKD
Chain of GSPT1 (Q96SW2 whole entry): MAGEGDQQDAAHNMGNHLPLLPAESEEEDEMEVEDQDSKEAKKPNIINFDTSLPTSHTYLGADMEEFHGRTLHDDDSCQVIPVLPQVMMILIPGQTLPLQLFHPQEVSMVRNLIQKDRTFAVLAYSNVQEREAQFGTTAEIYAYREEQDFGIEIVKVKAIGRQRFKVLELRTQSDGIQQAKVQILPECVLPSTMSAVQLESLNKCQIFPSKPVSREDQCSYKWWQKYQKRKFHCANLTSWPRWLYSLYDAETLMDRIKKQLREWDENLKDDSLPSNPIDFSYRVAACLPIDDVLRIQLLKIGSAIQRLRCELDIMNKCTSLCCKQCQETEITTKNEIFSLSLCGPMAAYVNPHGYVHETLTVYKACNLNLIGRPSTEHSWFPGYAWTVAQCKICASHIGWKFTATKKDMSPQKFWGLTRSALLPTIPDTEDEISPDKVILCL
Chain of GSPT1 (Q16531 whole entry partner): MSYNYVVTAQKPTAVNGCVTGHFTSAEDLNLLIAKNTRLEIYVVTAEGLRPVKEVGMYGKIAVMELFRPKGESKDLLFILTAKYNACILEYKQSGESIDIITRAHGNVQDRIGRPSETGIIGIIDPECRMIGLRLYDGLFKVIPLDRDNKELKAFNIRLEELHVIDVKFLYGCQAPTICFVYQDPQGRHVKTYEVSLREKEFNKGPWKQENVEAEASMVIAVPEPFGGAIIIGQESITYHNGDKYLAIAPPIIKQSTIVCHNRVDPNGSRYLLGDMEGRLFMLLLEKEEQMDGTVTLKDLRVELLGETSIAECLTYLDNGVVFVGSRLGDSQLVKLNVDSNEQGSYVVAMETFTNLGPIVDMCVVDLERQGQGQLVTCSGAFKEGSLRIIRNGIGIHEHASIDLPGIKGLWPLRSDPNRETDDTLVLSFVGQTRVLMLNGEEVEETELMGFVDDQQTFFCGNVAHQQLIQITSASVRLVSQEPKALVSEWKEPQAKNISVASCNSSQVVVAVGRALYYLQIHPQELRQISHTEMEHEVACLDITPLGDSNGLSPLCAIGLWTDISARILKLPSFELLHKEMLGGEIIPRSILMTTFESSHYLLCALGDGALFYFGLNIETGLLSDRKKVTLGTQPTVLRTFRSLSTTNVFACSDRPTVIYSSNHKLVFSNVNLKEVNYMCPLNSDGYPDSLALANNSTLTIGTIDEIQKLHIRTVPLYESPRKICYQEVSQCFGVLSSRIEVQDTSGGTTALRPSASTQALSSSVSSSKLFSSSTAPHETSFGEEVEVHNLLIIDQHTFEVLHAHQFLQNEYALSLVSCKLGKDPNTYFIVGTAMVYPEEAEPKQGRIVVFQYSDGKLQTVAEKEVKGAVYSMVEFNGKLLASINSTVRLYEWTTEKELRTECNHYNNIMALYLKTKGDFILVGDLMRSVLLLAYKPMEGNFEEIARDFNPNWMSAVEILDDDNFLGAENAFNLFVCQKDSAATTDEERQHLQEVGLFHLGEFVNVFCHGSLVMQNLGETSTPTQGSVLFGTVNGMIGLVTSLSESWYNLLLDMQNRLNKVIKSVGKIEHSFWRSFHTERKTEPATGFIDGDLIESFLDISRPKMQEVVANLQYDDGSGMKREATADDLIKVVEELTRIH
Description: MV4-11 cells were seeded in 6-well plates (1×10^6 cells per well). After overnight incubation, the cells were treated with indicated concentrations for specific timepoints. […] After blocking the membrane with LI-COR TBS blocking buffer and incubation in primary antibody overnight, the corresponding protein signals were detected using IRDye secondary antibodies and Odyssey Imaging System. Image Studio Lite Ver 5.2 was used for blot quantification. […] IRDye® 800CW Goat anti-Mouse IgG Secondary Antibody and IRDye® 68ORD Goat anti-Rabbit IgG Secondary Antibody were used as secondary antibodies.

[3] = Pharmacokinetics (PK) study in CD1 mice; format: in vivo, mouse
Description: Healthy female CD1 mice (8-12 weeks old) weighing between 20 to 30 g were procured from Global, India. Three mice were housed in each cage. Temperature and humidity were maintained at 22±3° C. and 30-70%, respectively and illumination was controlled to give a sequence of 12 hr light and 12 hr dark cycle. Temperature and humidity were recorded by auto-controlled data logger system. All the animals were provided laboratory rodent diet (Envigo Research private Ltd, Hyderabad). Reverse osmosis water treated with ultraviolet light was provided ad libitum. Formulation vehicle: 5% v/v NMP: 5% v/v Solute HS-15 and 90% v/v normal saline. […] The dosing volume for intravenous was 5 mL/kg and for oral administration 10 mL/kg. Blood samples (approximately 60 μL) were collected under light isoflurane anesthesia (Surgivet®) from retro orbital plexus from a set of three mice at 0.08 (for IV only), 0.25, 0.5, 1, 2, 4, 6 (for PO only), 8, 12 and 24 hr. Immediately after blood collection, plasma was harvested by centrifugation at 4000 rpm, 10 min at […] and samples were stored at −70±10° C. until bioanalysis. […] Non-Compartmental-Analysis tool of Phoenix WinNonlin® (Version 8.0) was used to assess the pharmacokinetic parameters. Peak plasma concentration (Cmax) and time for the peak plasma concentration (Tmax) were the observed values. The areas under the concentration time curve (AUClast and AUCinf) were calculated by linear trapezoidal rule. The terminal elimination rate constant, ke was determined by regression analysis of the linear terminal portion of the log plasma concentration-time curve. Clearance was estimated as Dose/AUCinf and Vss as CL*MRT. The oral bioavailability was calculated as ratio of dose normalized AUC of oral and intravenous group multiplied by 100.

For `O=C1CCC(N2C(=O)c3ccc(NS(=O)(=O)c4ccccc4OC(F)(F)F)cc3C2=O)C(=O)N1` (stereo not drawn) [Compound 1, N-(2-(2,6-dioxopiperidin-3-yl)-1,3-dioxoisoindolin-5-yl)-2-(trifluoromethoxy)benzenesulfonamide], the “intrinsic clearance Clint” value [1] was 12 mL/min/kg, the “liver microsomes t1/2” value [1] was 4.7 h and the Papp (MDCKII-MDR1 cells) was 23 nm/s. The “antiproliferative activity in absence of CRBN” value [2] was “abolished”, the GSPT1 protein degradation (GSPT1) was 90% and the clearance ([3]; 3 mg/kg IV) was 0.46 mL/min/kg. It also gave a volume of distribution ([3]; 3 mg/kg IV) of 0.15 L/kg, an oral bioavailability ([3]; 10 mg/kg PO vs 3 mg/kg IV) of 84% and a half-life ([3]; female, CD1, mouse, plasma, 3 mg/kg IV, read-out: terminal elimination half-life (t1/2) (converted)) of 204 min.
